Data reported in patent publication US20230003720A1 (priority 2016, published 2023).

Assays:
[1] = target: T1, mOR18-2 (Mus musculus, UniProt Q8VBV9); assay type: cell-based
T1 construct: expressed in transfected cells
T1 sequence (Q8VBV9 1-320): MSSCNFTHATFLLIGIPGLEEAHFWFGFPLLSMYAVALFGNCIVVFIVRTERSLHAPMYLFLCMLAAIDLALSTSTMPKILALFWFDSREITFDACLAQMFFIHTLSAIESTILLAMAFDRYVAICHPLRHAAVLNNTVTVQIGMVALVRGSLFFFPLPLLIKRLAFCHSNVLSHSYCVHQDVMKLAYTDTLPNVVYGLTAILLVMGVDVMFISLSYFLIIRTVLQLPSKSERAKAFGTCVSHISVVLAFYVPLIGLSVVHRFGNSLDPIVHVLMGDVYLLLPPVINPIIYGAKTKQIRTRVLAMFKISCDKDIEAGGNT

[2] = target: T2, OR2W1 (Homo sapiens, UniProt Q9Y3N9); assay type: cell-based
T2 construct: expressed in transfected cells
T2 sequence (Q9Y3N9 1-320): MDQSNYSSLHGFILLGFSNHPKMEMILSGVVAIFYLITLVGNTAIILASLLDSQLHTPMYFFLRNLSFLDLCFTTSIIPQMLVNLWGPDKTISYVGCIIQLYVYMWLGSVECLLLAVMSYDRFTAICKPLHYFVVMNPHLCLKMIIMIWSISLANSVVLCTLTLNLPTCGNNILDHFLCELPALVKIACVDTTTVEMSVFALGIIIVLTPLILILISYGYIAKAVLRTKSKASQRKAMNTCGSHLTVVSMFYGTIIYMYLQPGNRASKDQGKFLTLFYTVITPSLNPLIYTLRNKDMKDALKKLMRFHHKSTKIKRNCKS

[3] = system: mOR178-1; assay type: cell-based, mouse
[4] = system: mOR18-1; assay type: cell-based, Mus musculus

Measured: receptor response as measured levels of luminescence

CCN(CC)C(=O)[C@@H]1C=C2c3cccc4[nH]cc(c34)C[C@H]2N(C)C1 [LSD]
responded: all assays above

c1ccc(C2(N3CCCCC3)CCCCC2)cc1 [PCP]
responded: all assays above

CC(=O)Oc1ccc2c3c1O[C@H]1[C@@H](OC(C)=O)C=C[C@H]4[C@@H](C2)N(C)CC[C@@]341 [heroine]
responded: all assays above
